In patent publication US11998539B2, “Substituted aminoquinolones as DGKalpha inhibitors for immune activation” (Bayer Aktiengesellschaft, priority 2019, dated 2024):

Target: DGKα (Homo sapiens (Human), UniProt P23743)
Assay: Human DGKα kinase activity inhibition assay (ADP-Glo)
Assay type: biochemical
Conditions: recombinant full-length human DGKα, 55 μM ATP, 7 μM 1,2-dioleoyl-sn-glycerol, read-out: IC50 values of examples in in vitro human DGKa kinase activity inhibition assays
How it was run: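 Recombinant full-length human DGKα (C-terminal FLAG, from insect cells) phosphorylated 1,2-dioleoyl-sn-glycerol presented in octyl-glucopyranoside micelles. ADP formed was quantified by ADP-Glo luminescence. Compounds were added from 100-fold DMSO stocks.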

Sequence of DGKα (P23743 other isoform, or with tags, fused parts or gaps): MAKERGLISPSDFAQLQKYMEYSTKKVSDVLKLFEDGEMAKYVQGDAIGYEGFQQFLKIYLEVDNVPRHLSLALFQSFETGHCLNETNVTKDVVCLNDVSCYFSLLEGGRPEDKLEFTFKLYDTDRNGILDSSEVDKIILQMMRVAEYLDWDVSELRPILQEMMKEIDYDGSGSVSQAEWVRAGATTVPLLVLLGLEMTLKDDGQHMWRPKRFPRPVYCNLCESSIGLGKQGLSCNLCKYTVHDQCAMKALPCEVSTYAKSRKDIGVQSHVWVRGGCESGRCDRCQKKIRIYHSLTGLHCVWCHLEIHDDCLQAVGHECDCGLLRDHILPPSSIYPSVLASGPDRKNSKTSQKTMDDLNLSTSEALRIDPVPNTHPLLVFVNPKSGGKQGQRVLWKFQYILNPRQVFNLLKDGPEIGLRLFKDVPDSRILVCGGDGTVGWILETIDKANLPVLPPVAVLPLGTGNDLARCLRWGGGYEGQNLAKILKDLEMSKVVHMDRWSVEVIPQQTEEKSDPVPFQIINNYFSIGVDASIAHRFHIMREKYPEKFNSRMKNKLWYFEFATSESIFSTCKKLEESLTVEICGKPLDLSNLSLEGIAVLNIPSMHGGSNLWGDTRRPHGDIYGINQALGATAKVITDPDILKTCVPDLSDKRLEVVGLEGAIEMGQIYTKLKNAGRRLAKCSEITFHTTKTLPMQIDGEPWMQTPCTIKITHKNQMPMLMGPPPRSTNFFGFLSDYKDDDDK

## COCc1ccc2nc(C3(C)CCN(c4c(C#N)c(=O)n(C)c5ccccc45)CC3)oc2c1 [Example 392, 4-{4-[6-(methoxymethyl)-1,3-benzoxazol-2-yl]-4-methylpiperidin-1-yl}-1-methyl-2-oxo-1,2-dihydroquinoline-3-carbonitrile]
  IC50: 6.7 nM

## Cc1ccc2oc(C3(C)CCN(c4c(C#N)c(=O)n(C)c5ccc(OCC6(C#N)CC6)cc45)CC3)nc2c1 [Example 268, 6-[(1-cyanocyclopropyl)methoxy]-1-methyl-4-[4-methyl-4-(5-methyl-1,3-benzoxazol-2-yl)piperidin-1-yl]-2-oxo-1,2-dihydroquinoline-3-carbonitrile]
  IC50: 65 nM

## Cc1ccc2oc(C3CCN(c4c(C(N)=O)c(=O)n(C)c5cc(F)ccc45)CC3)nc2c1 [Example 304, 7-fluoro-1-methyl-4-[4-(5-methyl-1,3-benzoxazol-2-yl)piperidin-1-yl]-2-oxo-1,2-dihydroquinoline-3-carboxamide]
  IC50: 2.1 nM

## Cn1ccc2c(F)cc(C3CCN(c4c(C#N)c(=O)n(C)c5ccccc45)CC3)cc21 [Example 365, 4-[4-(4-fluoro-1-methyl-1H-indol-6-yl)piperidin-1-yl]-1-methyl-2-oxo-1,2-dihydroquinoline-3-carbonitrile]
  IC50: 14 nM

## Cn1c(C2CCN(c3c(C#N)c(=O)n(C)c4ccccc34)CC2)nc2ccccc21 [Example 147, 1-methyl-4-[4-(1-methyl-1H-benzimidazol-2-yl)piperidin-1-yl]-2-oxo-1,2-dihydroquinoline-3-carbonitrile]
  IC50: 358 nM

## Cn1c(=O)c(C#N)c(N2CCC(C)(c3nc4ccccc4o3)CC2)c2cc(F)ccc21 [Example 216, 4-[4-(1,3-benzoxazol-2-yl)-4-methylpiperidin-1-yl]-6-fluoro-1-methyl-2-oxo-1,2-dihydroquinoline-3-carbonitrile]
  IC50: 0.4 nM

## COc1ccc2c(c1)c(N1CCC(c3nc(-c4cccc(C)c4)no3)CC1)c(C(N)=O)c(=O)n2C [Example 520, 6-methoxy-1-methyl-4-{4-[3-(3-methylphenyl)-1,2,4-oxadiazol-5-yl]piperidin-1-yl}-2-oxo-1,2-dihydroquinoline-3-carboxamide]
  IC50: 37 nM

## CC1Cc2cc(C3CCN(c4c(C(N)=O)c(=O)n(C)c5ccccc45)CC3)ccc2O1 (stereo not drawn) [Example 466, 1-methyl-4-{4-[2-methyl-2,3-dihydro-1-benzofuran-5-yl]piperidin-1-yl}-2-oxo-1 2-dihydroquinoline-3-carboxamide]
  IC50: 0.5 nM

## Cn1c(=O)c(C#N)c(N2CCC(c3nc4ccc(C5CC5)cc4o3)CC2)c2ccccc21 [Example 395, 4-[4-(6-cyclopropyl-1,3-benzoxazol-2-yl)piperidin-1-yl]-1-methyl-2-oxo-1,2-dihydroquinoline-3-carbonitrile]
  IC50: 2.4 nM

## CN1CCN(c2ccc(C3CCN(c4c(C#N)c(=O)n(C)c5ccccc45)CC3)cc2)C(=O)C1 [Example 66]
  IC50: 78 nM

## Cn1c(=O)c(C#N)c(N2CCC(c3ccc(Cl)cc3)CC2)c2ccccc21 [Example 54, 4-[4-(4-chlorophenyl)piperidin-1-yl]-1-methyl-2-oxo-1,2-dihydroquinoline-3-carbonitrile]
  IC50: 14 nM

## CN(C)c1ccc(C2CCN(c3c(C#N)c(=O)n(C)c4ccccc34)CC2)cc1 [Example 46, 4-{4-[4-(dimethylamino)phenyl]piperidin-1-yl}-1-methyl-2-oxo-1,2-dihydroquinoline-3-carbonitrile]
  IC50: 2.5 nM

## Cn1c(=O)c(C(N)=O)c(N2CCC(c3ccc4c(c3)C3(CCC3)C(=O)N4)CC2)c2ccccc21 [Example 469, 1-methyl-2-oxo-4-[4-(2′-oxo-1′,2′-dihydrospiro[cyclobutane-1,3′-indol]-5′-yl)piperidin-1-yl]-1,2-dihydroquinoline-3-carboxamide]
  IC50: 33 nM

## Cn1c(=O)c(C#N)c(N2CCC(c3cccc(N4CCOCC4)c3)CC2)c2ccccc21 [Example 63]
  IC50: 39 nM

## Cn1c(=O)c(C(N)=O)c(N2CCC(c3nnc(-c4cccc(C(F)(F)F)c4)o3)CC2)c2cc(Br)ccc21 [Example 519]
  IC50: 20 nM
